In patent US8183263B2 (priority 2007, dated 2012) one finds EC50 data, which are given here for 29 molecules.

The subject of this experiment is HCV replicon. Description: HCV replicon replication assay (NPT level by captured ELISA). The experiment is classed as cell-based. To be noted: Hepatitis C virus, 72 h; Huh-7 HCV replicon-containing cells, three days incubation; read-out: Activity (inhibition of HCV replicon replication). The procedure, abridged: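 Huh-7 cells carrying HCV subgenomic replicon (NS3–NS5B, neo reporter) treated 3 days at 37 °C with 6 concentrations from 10 to 0.03 micromolar in G418-free medium, equal DMSO across wells. Replication measured on day four as NPTII level by in-cell captured ELISA on fixed cells; interferon alpha as positive control.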
Background: A replicon is a self-replicating genome or part of one, used to study replication in cells.
On to `Fc1sc(Nc2ccc(OCCC#CC3CCCC3)c(C(F)(F)F)c2)nc1-c1cccnc1` [Cmp 191, N-(4-(4-cyclopentylbut-3-ynyloxy)-3-(trifluoromethyl)phenyl)-5-fluoro-4-(pyridin-3-yl)thiazol-2-amine], for which the EC50 is below 1 µM.

Regarding `Fc1sc(Nc2ccc(Oc3ccccc3)c(C(F)(F)F)c2)nc1-c1cccnc1` [Cmp 70, 5-fluoro-N-(4-phenoxy-3-(trifluoromethyl)phenyl)-4-(pyridin-3-yl)thiazol-2-amine], the EC50 is below 1 µM.

With `COc1ncc(-c2csc(Nc3ccc(Oc4ccccc4)c(C(F)(F)F)c3)n2)cn1` [Cmp 51, 4-(2-methoxypyrimidin-5-yl)-N-(4-phenoxy-3-(trifluoromethyl)phenyl)thiazol-2-amine], the EC50 is below 1 µM.

In the case of `CCCCCCCCc1ccc(Nc2nc(-c3ccc(O)nc3)c(F)s2)cc1C(F)(F)F` [Cmp 101, 5-(5-fluoro-2-(4-octyl-3-(trifluoromethyl)phenylamino)thiazol-4-yl)pyridin-2-ol], the EC50 is below 1 µM.

In the case of `CCCCCOc1cc(Nc2nc(-c3cnc(OC)nc3)cs2)ccc1C(F)(F)F` [Cmp 72, 4-(2-methoxypyrimidin-5-yl)-N-(3-(pentyloxy)-4-(trifluoromethyl)phenyl)thiazol-2-amine], the EC50 is below 1 µM.

Take `CCCCCCc1ccc(Nc2nc(-c3cccnc3)c(F)s2)cc1C(F)(F)F` [Cmp 112]: the EC50 is below 1 µM.

On to `Cc1cccc(OCCCc2ccc(Nc3nc(-c4cccnc4)cs3)cc2C(F)(F)F)c1` [Cmp 91, 4-(pyridin-3-yl)-N-(4-(3-(m-tolyloxy)propyl)-3-(trifluoromethyl)phenyl)thiazol-2-amine], for which the EC50 is below 1 µM.

Regarding `CCCCCOCCCc1ccc(Nc2nc(-c3cccnc3)c(F)s2)cc1C(F)(F)F` [Cmp 220, 5-fluoro-N-(4-(3-(pentyloxy)propyl)-3-(trifluoromethyl)phenyl)-4-(pyridin-3-yl)thiazol-2-amine], the EC50 is below 1 µM.

For the molecule `CCCCCCCCc1ccc(Nc2nc(-c3ccc(F)nc3)cs2)cc1C(F)(F)F` [Cmp 168, 4-(6-fluoropyridin-3-yl)-N-(4-octyl-3-(trifluoromethyl)phenyl)thiazol-2-amine], the EC50 is below 1 µM.

For `CCCCCc1nc2cc(Nc3nc(-c4cnc(OC)nc4)cs3)ccc2o1` [Cmp 55, N-(4-(2-methoxypyrimidin-5-yl)thiazol-2-yl)-2-pentylbenzo[d]oxazol-5-amine], the EC50 was below 1 µM.

As for `CCCCCc1nc2cc(Nc3nc(-c4cnc(OC)nc4)c(F)s3)ccc2o1` [Cmp 56, N-(5-fluoro-4-(2-methoxypyrimidin-5-yl)thiazol-2-yl)-2-pentylbenzo[d]oxazol-5-amine], the EC50 is below 1 µM.

Turning to `CCCCCCC[C@@H](C)Oc1ccc(Nc2nc(-c3cccnc3)c(F)s2)cc1C(F)(F)F` [Cmp 233, (R)-5-fluoro-N-(4-(nonan-2-yloxy)-3-(trifluoromethyl)phenyl)-4-(pyridin-3-yl)thiazol-2-amine], the EC50 was below 1 µM.

`CCCCCCCCOc1cc(Nc2nc(-c3cccnc3)c(F)s2)ccc1C(F)(F)F` [Cmp 78, 5-fluoro-N-(3-(octyloxy)-4-(trifluoromethyl)phenyl)-4-(pyridin-3-yl)thiazol-2-amine]: the EC50 is below 1 µM.

On to `CN(C)c1ccc(CCCCOc2ccc(Nc3nc(-c4cccnc4)cs3)cc2C(F)(F)F)cc1` [Cmp 89, N-(4-(4-(4-(dimethylamino)phenyl)butoxy)-3-(trifluoromethyl)phenyl)-4-(pyridin-3-yl)thiazol-2-amine], for which the EC50 is below 1 µM.

In the case of `CCCCCCCc1nc2cc(Nc3nc(-c4cccnc4)c(F)s3)ccc2o1` [Cmp 93, N-(5-fluoro-4-(pyridin-3-yl)thiazol-2-yl)-2-heptylbenzo[d]oxazol-5-amine], the EC50 was below 1 µM.

For `CCCCCCCCOc1cc(Nc2nc(-c3ccc(F)cc3)c(F)s2)ccc1C` [Cmp 62, 5-fluoro-4-(4-fluorophenyl)-N-(4-methyl-3-(octyloxy)phenyl)thiazol-2-amine], the EC50 is below 1 µM.

`CC(C)(C)c1cc2cc(Nc3nc(-c4cccnc4)cs3)ccc2o1` [Cmp 150, N-(2-tert-butylbenzofuran-5-yl)-4-(pyridin-3-yl)thiazol-2-amine]: the EC50 was below 1 µM.

For the molecule `CCCCCCCCc1ccc(Nc2nc(-c3cncc(C#N)c3)c(F)s2)cc1C(F)(F)F` [Cmp 182, 5-(5-fluoro-2-(4-octyl-3-(trifluoromethyl)phenylamino)thiazol-4-yl)nicotinonitrile], the EC50 is below 1 µM.

Regarding `CCCCCc1nc2ccc(Nc3nc(-c4cccnc4)cs3)cc2o1` [Cmp 66, 2-pentyl-N-(4-(pyridin-3-yl)thiazol-2-yl)benzo[d]oxazol-6-amine], the EC50 is below 1 µM.

Regarding `CCCCCOc1cc(Nc2nc(-c3ccc(F)cc3)cs2)ccc1C(F)(F)F` [Cmp 76, 4-(4-fluorophenyl)-N-(3-(pentyloxy)-4-(trifluoromethyl)phenyl)thiazol-2-amine], the EC50 is below 1 µM.

Take `CCCCCCCCc1ccc(Nc2nc(-c3ccccc3)c(CC(=O)O)s2)cc1C(F)(F)F` [Cmp 219, 2-(2-(4-octyl-3-(trifluoromethyl)phenylamino)-4-phenylthiazol-5-yl)acetic acid]: the EC50 was 1 to 10 µM.

As for `CCCCCCCC(C)(C)Oc1ccc(Nc2nc(-c3cccnc3)c(F)s2)cc1C(F)(F)F` [Cmp 221, 5-fluoro-N-(4-(2-methylnonan-2-yloxy)-3-(trifluoromethyl)phenyl)-4-(pyridin-3-yl)thiazol-2-amine], the EC50 is below 1 µM.

`CCCCCCCCOc1ccc(N(C)c2nc(-c3cccnc3)c(F)s2)cc1C(F)(F)F` [Cmp 159, 5-fluoro-N-methyl-N-(4-(octyloxy)-3-(trifluoromethyl)phenyl)-4-(pyridin-3-yl)thiazol-2-amine]: the EC50 is below 1 µM.

Consider `Fc1sc(Nc2ccc(OC3Cc4ccccc4C3)c(C(F)(F)F)c2)nc1-c1cccnc1` [Cmp 176, N-(4-(2,3-dihydro-1H-inden-2-yloxy)-3-(trifluoromethyl)phenyl)-5-fluoro-4-(pyridin-3-yl)thiazol-2-amine], for which the EC50 is below 1 µM.

As to `Fc1sc(Nc2ccc(OCCOc3ccccc3)c(C(F)(F)F)c2)nc1-c1cccnc1` [Cmp 139, 5-fluoro-N-(4-(2-phenoxyethoxy)-3-(trifluoromethyl)phenyl)-4-(pyridin-3-yl)thiazol-2-amine], the EC50 is below 1 µM.

With `FC(F)(F)c1cc(Nc2nc(-c3cccnc3)cs2)ccc1OCCCCc1ccncc1` [Cmp 137, 4-(pyridin-3-yl)-N-(4-(4-(pyridin-4-yl)butoxy)-3-(trifluoromethyl)phenyl)thiazol-2-amine], the EC50 was below 1 µM.

For `CCCCCCCCOc1ccc(Nc2nc(-c3cnccn3)c(Cl)s2)cc1C(F)(F)F` [Cmp 162, 5-chloro-N-(4-(octyloxy)-3-(trifluoromethyl)phenyl)-4-(pyrazin-2-yl)thiazol-2-amine], the EC50 was below 1 µM.

Turning to `CCCCCCc1ccc(Nc2nc(-c3cnc(OC)nc3)cs2)cc1C(F)(F)F` [Cmp 113, N-(4-hexyl-3-(trifluoromethyl)phenyl)-4-(2-methoxypyrimidin-5-yl)thiazol-2-amine], the EC50 is below 1 µM.

On to `C/C=N/N(c1ccc(OCCCCCCCC)c(C(F)(F)F)c1)c1nc(-c2cccnc2)cs1` [Cmp 33, (E)-2-(2-ethylidene-1-(4-(octyloxy)-3-(trifluoromethyl)phenyl)hydrazinyl)-4-(pyridin-3-yl)thiazole], for which the EC50 was below 1 µM.
